Our source for the IC50 values is patent US20260297085A1, “1 H-PYRROLO[2,3-B]PYRIDIN-4-YL]-2-OXOPYRROLIDINE-3-CARBONITRILE DERIVATIVES AS TYROSINE KINASE 2 (TYK2) INHIBITORS FOR THE TREATMENT OF INFLAMMATORY DISEASES” (BIOGEN MA INC., priority 2023, published 2026).

Test [1] concerns the target JAK1 kinase activity on STAT3 in TF1 cells (Homo sapiens, UniProt P23458). The experiment in a line: pSTAT3 cell assay (MSD; TF1 cells, 30 ng/mL IL-6 stimulation). In kind it is cell-based. The conditions noted are these: 30 ng/mL IL-6, 15 minutes. In a few lines: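 IC50 values derive from 4-parameter logistic fits of normalized pSTAT3 signal, measured by MSD with anti-STAT3 antibodies. TF1 cells, serum-starved beforehand, received compound for 1 hour (top concentration 10 μM, four-fold steps, 10 points) before a 15-minute IL-6 (30 ng/mL) stimulus.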

Test [2] concerns the target T1, human JAK2 kinase domain (JH1) (Homo sapiens, UniProt O60674).
T1 construct: recombinantly generated catalytic kinase (also known as JH1) domain of human JAK1, JAK2, JAK3 and TYK2
The experiment in a line: JH1 biochemical assay for JAK2 (ADP-Glo kinase assay, recombinant JH1 catalytic domain, JAK3-974 peptide, 15 μM ATP). The conditions noted are these: JAK2 JH1, ADP-Glo. In a few lines: (§1)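 Luminescent ADP read-out after residual ATP depletion, 100 min reaction. Kinase domain concentrations were 4 nM (JAK1), 0.2 nM (JAK2), 0.3 nM (JAK3) and 2 nM (TYK2), each with 50 μM peptide. IC50 values came from 4-parameter logistic fits over 11 points, 3-fold steps, top 10 μM or 1 μM.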
For orientation: ADP-Glo turns the ADP formed in a reaction into a luminescent signal.

The target in test [3] is T2, human JAK1 kinase domain (JH1) (Homo sapiens, UniProt P23458).
T2 construct: recombinantly generated catalytic kinase (also known as JH1) domain of human JAK1, JAK2, JAK3 and TYK2
The test is described as follows: JH1 biochemical assay for JAK1 (ADP-Glo kinase assay, recombinant JH1 catalytic domain, JAK3-342 peptide, 35 μM ATP). The conditions noted are these: JAK1 JH1, ADP-Glo. In a few lines: as §1

Test [4] concerns the target JAK2 kinase activity on STAT5 in TF1 cells (Homo sapiens, UniProt O60674). The test is described as follows: pSTAT5 cell assay (MSD; TF1 cells, 30 ng/mL IL-3 stimulation). It counts as cell-based. The following applies: 30 ng/mL IL-3, 15 minutes. In a few lines: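 IC50 from a 4-parameter logistic fit of normalized pSTAT5 signal, measured by MSD in lysates of TF1 cells. Cells were serum-starved, exposed to compound for 1 h (top concentration 10 μM, four-fold, 10 points), then given IL-3 at 30 ng/mL for 15 min.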

For test [5], the target named is T3, human JAK3 kinase domain (JH1) (Homo sapiens, UniProt P52333).
T3 construct: recombinantly generated catalytic kinase (also known as JH1) domain of human JAK1, JAK2, JAK3 and TYK2
The experiment in a line: JH1 biochemical assay for JAK3 (ADP-Glo kinase assay, recombinant JH1 catalytic domain, JAK3-974 peptide, 4 μM ATP). The following applies: JAK3 JH1, ADP-Glo. In a few lines: as §1

Test [6] concerns the target Tyk2 kinase activity on STAT4 in NK92 cells (Homo sapiens, UniProt P29597). The test is described as follows: pSTAT4 cell assay (MSD; NK92 cells, 30 ng/mL IL2 stimulation). In kind it is cell-based. The following applies: 30 ng/mL IL2, 15 minutes. In a few lines:
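IC50 values come from 4-parameter logistic fits of normalized percent activity. Phospho-STAT was read by MSD (anti-STAT4 antibodies) in NK92 lysates after a 15 min stimulation with 30 ng/mL IL2. The serum-starved cells had been given compound for 1 h (10 points, four-fold, top 10 μM).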

The target of test [7] is T4, human TYK2 kinase domain (JH1) (Homo sapiens, UniProt P29597).
T4 construct: recombinantly generated catalytic kinase (also known as JH1) domain of human JAK1, JAK2, JAK3 and TYK2
T4 sequence (P29597 897-1176 limits assumed): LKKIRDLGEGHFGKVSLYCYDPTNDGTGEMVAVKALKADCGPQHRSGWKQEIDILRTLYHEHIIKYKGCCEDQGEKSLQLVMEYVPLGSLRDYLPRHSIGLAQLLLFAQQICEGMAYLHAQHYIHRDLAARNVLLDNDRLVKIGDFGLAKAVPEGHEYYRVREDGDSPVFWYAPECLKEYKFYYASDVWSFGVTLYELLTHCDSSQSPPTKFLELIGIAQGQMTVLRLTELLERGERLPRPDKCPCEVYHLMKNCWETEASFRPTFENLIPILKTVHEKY
The test is described as follows: JH1 biochemical assay for TYK2 (ADP-Glo kinase assay, recombinant JH1 catalytic domain, JAK3-974 peptide, 10 μM ATP). The conditions noted are these: TYK2 JH1, ADP-Glo. In a few lines: as §1

The structures appear in SMILES notation.

T1 sequence (O60674 849-1124 limits assumed): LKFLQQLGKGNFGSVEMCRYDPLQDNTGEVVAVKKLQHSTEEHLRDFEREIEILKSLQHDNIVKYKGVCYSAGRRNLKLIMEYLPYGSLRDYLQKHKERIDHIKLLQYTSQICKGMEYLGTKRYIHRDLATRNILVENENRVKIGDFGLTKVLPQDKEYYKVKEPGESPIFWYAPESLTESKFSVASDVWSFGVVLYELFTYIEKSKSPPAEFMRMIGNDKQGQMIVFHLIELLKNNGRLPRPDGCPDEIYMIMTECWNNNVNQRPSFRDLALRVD
T3 sequence (P52333 822-1111 limits assumed): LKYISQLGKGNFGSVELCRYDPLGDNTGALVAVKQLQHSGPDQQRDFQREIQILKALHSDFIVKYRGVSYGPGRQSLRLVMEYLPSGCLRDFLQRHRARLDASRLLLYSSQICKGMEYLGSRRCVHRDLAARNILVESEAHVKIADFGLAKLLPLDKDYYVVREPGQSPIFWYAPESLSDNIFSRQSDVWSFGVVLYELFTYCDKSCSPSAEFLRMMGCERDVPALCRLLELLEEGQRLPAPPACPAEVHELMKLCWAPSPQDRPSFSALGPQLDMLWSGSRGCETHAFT
Chain of Tyk2 kinase activity on STAT4 in NK92 cells (P29597 whole entry): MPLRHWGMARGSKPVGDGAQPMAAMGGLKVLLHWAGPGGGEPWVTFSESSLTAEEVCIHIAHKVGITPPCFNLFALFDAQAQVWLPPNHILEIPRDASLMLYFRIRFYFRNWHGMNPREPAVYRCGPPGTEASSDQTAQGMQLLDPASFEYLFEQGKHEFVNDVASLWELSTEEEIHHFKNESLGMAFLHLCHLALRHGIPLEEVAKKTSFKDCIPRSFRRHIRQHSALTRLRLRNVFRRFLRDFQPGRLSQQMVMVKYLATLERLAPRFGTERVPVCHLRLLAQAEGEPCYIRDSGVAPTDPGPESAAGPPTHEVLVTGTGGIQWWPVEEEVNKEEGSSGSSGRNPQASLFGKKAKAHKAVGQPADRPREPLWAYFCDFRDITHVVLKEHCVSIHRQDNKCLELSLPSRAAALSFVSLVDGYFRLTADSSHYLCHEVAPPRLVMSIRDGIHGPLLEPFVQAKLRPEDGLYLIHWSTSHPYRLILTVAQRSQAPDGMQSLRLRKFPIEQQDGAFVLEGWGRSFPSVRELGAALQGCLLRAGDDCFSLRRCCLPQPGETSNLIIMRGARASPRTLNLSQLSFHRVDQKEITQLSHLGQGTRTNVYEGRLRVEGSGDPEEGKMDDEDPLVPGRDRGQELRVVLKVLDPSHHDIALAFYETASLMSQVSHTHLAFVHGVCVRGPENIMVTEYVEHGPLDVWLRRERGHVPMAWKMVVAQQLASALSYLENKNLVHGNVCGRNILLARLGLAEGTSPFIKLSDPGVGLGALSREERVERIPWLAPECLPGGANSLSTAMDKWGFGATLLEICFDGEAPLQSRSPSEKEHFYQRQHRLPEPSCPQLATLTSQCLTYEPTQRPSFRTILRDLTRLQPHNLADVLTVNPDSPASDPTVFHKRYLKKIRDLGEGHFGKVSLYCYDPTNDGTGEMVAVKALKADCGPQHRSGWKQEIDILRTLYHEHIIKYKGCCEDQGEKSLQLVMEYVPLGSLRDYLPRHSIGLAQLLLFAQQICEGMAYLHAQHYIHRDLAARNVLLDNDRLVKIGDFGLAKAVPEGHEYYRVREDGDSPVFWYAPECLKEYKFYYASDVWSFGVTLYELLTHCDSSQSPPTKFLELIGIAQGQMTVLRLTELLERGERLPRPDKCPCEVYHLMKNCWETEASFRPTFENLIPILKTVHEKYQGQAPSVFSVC
Chain of JAK1 kinase activity on STAT3 in TF1 cells (P23458 whole entry): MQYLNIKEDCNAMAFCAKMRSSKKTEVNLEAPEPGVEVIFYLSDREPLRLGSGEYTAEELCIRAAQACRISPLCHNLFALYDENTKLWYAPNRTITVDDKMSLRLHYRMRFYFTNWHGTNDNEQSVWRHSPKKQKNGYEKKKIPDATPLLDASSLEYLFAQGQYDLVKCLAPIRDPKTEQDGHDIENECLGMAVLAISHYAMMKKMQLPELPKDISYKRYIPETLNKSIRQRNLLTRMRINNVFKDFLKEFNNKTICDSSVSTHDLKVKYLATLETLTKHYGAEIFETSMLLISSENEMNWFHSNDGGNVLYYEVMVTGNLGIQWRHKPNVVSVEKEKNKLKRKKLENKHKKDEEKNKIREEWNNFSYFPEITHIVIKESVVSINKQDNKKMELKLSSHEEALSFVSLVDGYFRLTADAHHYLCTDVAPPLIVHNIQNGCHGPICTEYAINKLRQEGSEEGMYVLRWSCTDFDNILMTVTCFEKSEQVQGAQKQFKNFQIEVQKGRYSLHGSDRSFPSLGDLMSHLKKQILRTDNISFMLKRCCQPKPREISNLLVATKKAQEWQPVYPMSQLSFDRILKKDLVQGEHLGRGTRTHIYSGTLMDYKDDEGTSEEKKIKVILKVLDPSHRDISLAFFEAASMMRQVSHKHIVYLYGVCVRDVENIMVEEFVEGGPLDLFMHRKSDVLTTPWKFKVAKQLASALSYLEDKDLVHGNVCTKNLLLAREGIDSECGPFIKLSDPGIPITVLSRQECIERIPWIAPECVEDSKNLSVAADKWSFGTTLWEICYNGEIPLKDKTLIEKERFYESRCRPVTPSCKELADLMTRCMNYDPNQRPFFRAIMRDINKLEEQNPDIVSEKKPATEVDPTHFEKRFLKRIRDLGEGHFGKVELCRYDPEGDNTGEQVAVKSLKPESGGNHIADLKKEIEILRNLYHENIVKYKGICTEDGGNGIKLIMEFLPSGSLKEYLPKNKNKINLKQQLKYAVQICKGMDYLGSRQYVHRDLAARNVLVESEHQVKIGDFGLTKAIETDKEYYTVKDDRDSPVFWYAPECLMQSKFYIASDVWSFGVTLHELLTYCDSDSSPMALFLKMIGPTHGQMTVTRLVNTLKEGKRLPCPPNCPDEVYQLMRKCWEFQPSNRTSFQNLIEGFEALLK
T2 sequence (P23458 875-1153 limits assumed): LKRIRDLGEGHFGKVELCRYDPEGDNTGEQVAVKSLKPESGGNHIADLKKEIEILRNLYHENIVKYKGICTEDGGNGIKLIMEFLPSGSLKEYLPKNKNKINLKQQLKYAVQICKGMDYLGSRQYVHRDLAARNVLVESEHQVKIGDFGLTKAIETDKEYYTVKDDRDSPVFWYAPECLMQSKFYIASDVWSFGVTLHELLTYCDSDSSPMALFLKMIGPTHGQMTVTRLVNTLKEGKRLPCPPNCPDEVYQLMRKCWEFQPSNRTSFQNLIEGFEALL
Chain of JAK2 kinase activity on STAT5 in TF1 cells (O60674 whole entry): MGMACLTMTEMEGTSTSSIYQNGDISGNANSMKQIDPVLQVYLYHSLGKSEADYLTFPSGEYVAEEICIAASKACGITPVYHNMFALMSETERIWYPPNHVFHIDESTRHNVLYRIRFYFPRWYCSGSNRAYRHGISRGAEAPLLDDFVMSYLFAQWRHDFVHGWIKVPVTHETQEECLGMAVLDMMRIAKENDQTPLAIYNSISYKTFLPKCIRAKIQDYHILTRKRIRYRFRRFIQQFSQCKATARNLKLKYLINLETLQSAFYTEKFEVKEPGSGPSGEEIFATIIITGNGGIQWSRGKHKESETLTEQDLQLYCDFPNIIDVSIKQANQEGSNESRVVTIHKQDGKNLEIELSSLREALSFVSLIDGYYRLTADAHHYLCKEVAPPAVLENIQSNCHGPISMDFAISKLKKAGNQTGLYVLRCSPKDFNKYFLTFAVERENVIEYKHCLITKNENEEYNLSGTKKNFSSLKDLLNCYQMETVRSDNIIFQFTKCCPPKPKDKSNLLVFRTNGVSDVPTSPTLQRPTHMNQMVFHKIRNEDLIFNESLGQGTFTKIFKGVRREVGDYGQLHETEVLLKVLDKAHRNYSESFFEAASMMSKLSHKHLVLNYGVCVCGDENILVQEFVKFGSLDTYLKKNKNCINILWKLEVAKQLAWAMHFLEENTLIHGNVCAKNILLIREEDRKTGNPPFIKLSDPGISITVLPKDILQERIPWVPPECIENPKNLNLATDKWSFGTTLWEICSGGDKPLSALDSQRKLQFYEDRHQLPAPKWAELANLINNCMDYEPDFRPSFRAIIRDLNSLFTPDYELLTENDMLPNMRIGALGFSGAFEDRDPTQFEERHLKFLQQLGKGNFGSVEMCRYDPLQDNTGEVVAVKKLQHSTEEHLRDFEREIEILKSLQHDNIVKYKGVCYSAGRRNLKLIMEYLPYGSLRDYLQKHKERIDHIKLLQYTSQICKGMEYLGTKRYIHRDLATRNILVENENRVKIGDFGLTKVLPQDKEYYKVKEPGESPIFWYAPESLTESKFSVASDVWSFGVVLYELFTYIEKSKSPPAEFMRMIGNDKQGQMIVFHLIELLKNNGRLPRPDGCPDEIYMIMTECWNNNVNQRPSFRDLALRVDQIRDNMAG

As to `C[C@@H]1CN(c2nc(-c3cnn(CC(F)F)c3)cc3ncsc23)C(=O)[C@]1(C#N)C1CC1` [Example 354, (3R,4S)-3-cyclopropyl-1-(6-(1-(2,2-difluoroethyl)-1H-pyrazol-4-yl)thiazolo[5,4-c]pyridin-4-yl)-4-methyl-2-oxopyrrolidine-3-carbonitrile], the half-inhibitory concentration (IC50) in test [1] was below 100 nM; in test [2], below 100 nM; in test [3], below 100 nM; in test [4] it was below 100 nM; in test [5] it was below 100 nM; in test [6], 20 to 50 nM. Also, the IC50 in test [7] is below 5 nM.

For `CO[C@H]1C[C@H](n2cc(-c3cc4ncsc4c(N4C[C@@H](C)[C@@](C#N)(C5CC5)C4=O)n3)cn2)C1` [Example 355, (3R,4S)-3-cyclopropyl-1-(6-(1-((1r,3R)-3-methoxycyclobutyl)-1H-pyrazol-4-yl)thiazolo[5,4-c]pyridin-4-yl)-4-methyl-2-oxopyrrolidine-3-carbonitrile], the 50% inhibitory concentration (IC50) was below 100 nM in test [1]; below 100 nM in test [2]; below 100 nM in test [3]; below 100 nM in test [4]; below 100 nM in test [5]; 20 to 50 nM in test [6]. Moreover, the IC50 in test [7] is below 5 nM.

Turning to `C[C@@H]1CN(c2nc(-c3cnn(C4CC(C#N)C4)c3)cc3ncsc23)C(=O)[C@]1(C#N)C1CC1` (stereo partly drawn) [Example 356, (3R,4S)-1-(6-(1-(3-cyanocyclobutyl)-1H-pyrazol-4-yl)thiazolo[5,4-c]pyridin-4-yl)-3-cyclopropyl-4-methyl-2-oxopyrrolidine-3-carbonitrile], the IC50 is 100 to 1000 nM in test [1]; below 100 nM in test [2]; below 100 nM in test [3]; below 100 nM in test [4]; below 100 nM in test [5]; 20 to 50 nM in test [6]. In addition, the IC50 in test [7] is below 5 nM.

`C[C@@H]1CN(c2nc(-c3cnn(C4CC4)c3)cc3ncsc23)C(=O)[C@]1(C#N)C1CC1` [Example 357, (3R,4S)-3-cyclopropyl-1-(6-(1-cyclopropyl-1H-pyrazol-4-yl)thiazolo[5,4-c]pyridin-4-yl)-4-methyl-2-oxopyrrolidine-3-carbonitrile]: the 50% inhibitory concentration (IC50) in test [1] was below 100 nM; in test [2] it was below 100 nM; in test [3], below 100 nM; in test [4], below 100 nM; in test [5], below 100 nM; in test [6], 20 to 50 nM. Besides, the IC50 in test [7] was below 5 nM.

With `C[C@@H]1CN(c2nc(-c3cnn(C4CN(C)C4)c3)cc3ncsc23)C(=O)[C@]1(C#N)C1CC1` [Example 358, (3R,4S)-3-cyclopropyl-4-methyl-1-(6-(1-(1-methylazetidin-3-yl)-1H-pyrazol-4-yl)thiazolo[5,4-c]pyridin-4-yl)-2-oxopyrrolidine-3-carbonitrile], the IC50 in test [1] was 100 to 1000 nM; in test [2], below 100 nM; in test [3] it was below 100 nM; in test [4] it was 100 to 1000 nM; in test [5], below 100 nM; in test [6] it was 50 to 100 nM. Besides, the half-maximal inhibitory concentration (IC50) in test [7] was below 5 nM.

Usually IC50 stands for the concentration that inhibits the measured activity by half.
